Experimental data from ChEMBL document CHEMBL1140629, “2D QSAR studies on thyroid hormone receptor ligands” (Bioorg Med Chem, 2007).

What was measured:
[1] = molecular target: T1, Thyroid hormone receptor alpha (Homo sapiens, UniProt P10827)
T1 sequence (P10827 whole entry): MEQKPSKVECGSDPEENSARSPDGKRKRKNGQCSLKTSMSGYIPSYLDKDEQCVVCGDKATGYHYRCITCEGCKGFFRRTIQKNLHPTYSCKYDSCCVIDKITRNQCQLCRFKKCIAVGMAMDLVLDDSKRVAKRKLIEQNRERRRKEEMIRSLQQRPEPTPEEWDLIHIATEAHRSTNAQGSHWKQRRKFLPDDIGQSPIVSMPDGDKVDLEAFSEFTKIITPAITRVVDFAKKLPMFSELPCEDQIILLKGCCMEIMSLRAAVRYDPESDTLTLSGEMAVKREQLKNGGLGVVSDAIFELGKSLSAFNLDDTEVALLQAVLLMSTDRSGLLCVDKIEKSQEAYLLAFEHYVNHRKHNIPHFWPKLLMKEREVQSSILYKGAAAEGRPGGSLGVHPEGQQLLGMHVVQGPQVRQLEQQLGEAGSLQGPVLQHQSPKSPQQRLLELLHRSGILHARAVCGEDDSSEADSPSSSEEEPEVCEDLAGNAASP

[2] = molecular target: T2, Thyroid hormone receptor beta (Homo sapiens, UniProt P10828)
T2 sequence (P10828 whole entry): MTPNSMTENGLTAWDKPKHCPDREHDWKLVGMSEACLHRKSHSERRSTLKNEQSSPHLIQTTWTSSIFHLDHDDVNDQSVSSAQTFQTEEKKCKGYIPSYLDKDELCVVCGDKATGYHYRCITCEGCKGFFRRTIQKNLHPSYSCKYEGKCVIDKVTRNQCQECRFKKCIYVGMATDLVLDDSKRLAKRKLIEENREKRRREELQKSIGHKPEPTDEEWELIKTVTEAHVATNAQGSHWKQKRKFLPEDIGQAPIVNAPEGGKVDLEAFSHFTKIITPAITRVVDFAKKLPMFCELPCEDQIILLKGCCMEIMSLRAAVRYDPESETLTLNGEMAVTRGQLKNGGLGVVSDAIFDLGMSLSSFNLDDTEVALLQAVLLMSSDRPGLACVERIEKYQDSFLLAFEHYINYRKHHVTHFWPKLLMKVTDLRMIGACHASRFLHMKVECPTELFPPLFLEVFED

SMILES	IC50 [1] [nM]	IC50 [2] [nM]
O=C(O)Cc1cc(Cl)c(Oc2ccc(O)c(-c3ccccc3)c2)c(Cl)c1	129	–
O=C(O)Cc1cc(Cl)c(Oc2ccc(O)c(-c3cccc(O)c3)c2)c(Cl)c1	1170	–
COc1cccc(CCNC(=O)c2cc(Oc3c(Br)cc(CC(=O)O)cc3Br)ccc2O)c1	–	4.9
O=C(O)Cc1cc(Br)c(Oc2ccc(O)c(C(=O)NCCc3ccccn3)c2)c(Br)c1	1150	–
O=C(O)Cc1cc(Br)c(Oc2ccc(O)c(C(=O)NCc3ccccc3)c2)c(Br)c1	85.1	–
CC(C)c1cc(Oc2c(Cl)cc3[nH]c(C(=O)O)cc(=O)c3c2Cl)ccc1O	–	15.1
O=C(O)Cc1cc(Br)c(Oc2ccc(O)c(Cc3ccc(C(F)(F)F)cc3)c2)c(Br)c1	339	9.55
O=C(O)Cc1cc(Br)c(OC2CCCCC2)c(Br)c1	2690	776
O=C(O)Cc1cc(Cl)c(Oc2ccc(O)c(C(=O)NCc3ccccc3)c2)c(Cl)c1	126	3.47
CC(C)c1cc(Oc2c(Br)cc3c(c2Br)CC(C(=O)O)N3)ccc1O (stereo unspecified)	38	8.51
O=C(O)Cc1cc(Cl)c(Oc2ccc(O)c(-c3cccc(C(F)(F)F)c3)c2)c(Cl)c1	–	0.851

Next, values leading:

IC50 [1] [nM]	IC50 [2] [nM]	SMILES
26300	–	CCCCOc1c(Br)cc(CC(=O)O)cc1Br
240	–	O=C(O)Cc1cc(Br)c(Oc2ccc(O)c(Oc3ccc(O)cc3)c2)c(Br)c1
–	35.5	O=C(O)Cc1cc(Br)c(Oc2ccc(O)c(C(=O)Nc3ccccc3)c2)c(Br)c1
457	191	O=C(O)CCc1cc(Br)c(OC2CCCCC2)c(Br)c1
–	3.24	O=C(O)Cc1cc(Cl)c(Oc2ccc(O)c(-c3ccccc3C(F)(F)F)c2)c(Cl)c1
